The results in this text go back to article PMC7932537, “Quantitative profiling of protease specificity” (PLoS Computational Biology, 2021).

The subject of assay [1] is MMP-2. Description: Substrate phage display with NGS: relative probability (RP) of P3-P1' tetramer clusters.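 Note: ratio of tetramer probability after protease selection to that in naive phage library.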 The format is biochemical, human. The settings on record: MMP2.
Assay [2] concerns the target T1, MMP-2 (Homo sapiens, UniProt P08253).
T1 sequence (P08253 110-660): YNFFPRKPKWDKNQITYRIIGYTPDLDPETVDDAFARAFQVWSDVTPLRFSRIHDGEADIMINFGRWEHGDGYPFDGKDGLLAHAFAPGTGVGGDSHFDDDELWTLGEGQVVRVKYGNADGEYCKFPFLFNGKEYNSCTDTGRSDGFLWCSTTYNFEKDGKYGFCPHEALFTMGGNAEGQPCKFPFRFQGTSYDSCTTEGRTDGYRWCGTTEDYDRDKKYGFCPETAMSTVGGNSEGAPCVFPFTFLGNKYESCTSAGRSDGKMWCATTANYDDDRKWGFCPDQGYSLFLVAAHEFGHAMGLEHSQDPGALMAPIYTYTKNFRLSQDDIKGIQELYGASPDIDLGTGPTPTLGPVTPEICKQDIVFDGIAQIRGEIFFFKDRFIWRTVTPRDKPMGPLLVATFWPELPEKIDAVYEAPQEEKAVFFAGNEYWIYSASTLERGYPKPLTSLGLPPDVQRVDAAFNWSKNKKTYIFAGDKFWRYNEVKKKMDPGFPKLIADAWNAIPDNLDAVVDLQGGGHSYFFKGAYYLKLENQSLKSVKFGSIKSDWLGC
Description: K(obs) of individual phage substrates (set of 1369). The format is biochemical. As to conditions: MMP2.

A further assay deals with MMP-9 (Homo sapiens, UniProt P14780). The description is as above. The format is biochemical. As to conditions: MMP9.
[3] abbreviates: RP of the P3-P1' tetramer contained in the substrate.
The mark [4] stands for this setting: individual phage substrate of the set of 1369 peptides, cleavage position marked by '-'.
Setting [5] is: individual phage substrate of the set of 1369 peptides, dash in the sequence marks the cleavage position.
Setting [6] is: RP of the P3-P1' tetramer contained in the substrate (substrate phage display with NGS).
Setting [7] is: individual phage substrates, set of 1369 peptides, cleavage position marked by hyphen in sequence.
Where [8] appears, read: individual phage substrates, set of 1369 peptides, hyphen in sequence marks cleavage position.

MMP-9, sequence (P14780 94-707): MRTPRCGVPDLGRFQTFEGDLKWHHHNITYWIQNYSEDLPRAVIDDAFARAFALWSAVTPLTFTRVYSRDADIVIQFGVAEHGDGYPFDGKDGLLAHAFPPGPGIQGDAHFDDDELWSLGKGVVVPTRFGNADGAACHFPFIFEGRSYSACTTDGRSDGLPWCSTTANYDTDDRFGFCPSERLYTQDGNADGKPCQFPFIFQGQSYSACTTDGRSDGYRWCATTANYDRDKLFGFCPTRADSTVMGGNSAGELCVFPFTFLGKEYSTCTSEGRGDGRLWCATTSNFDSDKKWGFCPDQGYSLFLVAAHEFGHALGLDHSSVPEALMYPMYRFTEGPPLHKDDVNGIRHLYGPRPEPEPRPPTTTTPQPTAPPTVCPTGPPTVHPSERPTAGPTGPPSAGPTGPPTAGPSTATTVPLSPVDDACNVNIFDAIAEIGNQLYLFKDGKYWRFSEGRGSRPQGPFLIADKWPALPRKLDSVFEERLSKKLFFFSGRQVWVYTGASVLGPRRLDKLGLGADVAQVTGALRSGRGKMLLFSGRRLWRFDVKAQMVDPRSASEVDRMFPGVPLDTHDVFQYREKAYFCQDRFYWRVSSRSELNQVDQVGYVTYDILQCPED

Regarding RQWRA-LTASG, the “relative probability (RP)” value in the assay on MMP-2 [1] (setting [3]) turned out to be 22.4074. In addition, the Kobs on MMP-2 [2] (setting [4]) amounted to 5889.62 M⁻¹ s⁻¹; at MMP-9 (setting [5]), 4470.66 M⁻¹ s⁻¹.
For the substance RQWYG-ITASG, the “relative probability (RP)” value with MMP-2 [1] (setting [3]) amounted to 0.0533. Moreover, the Kobs on MMP-2 [2] (setting [4]) was 142.481 M⁻¹ s⁻¹; on MMP-9 (setting [5]), 4922.1 M⁻¹ s⁻¹.
For the substance RRPTN-LTASG, the “relative probability (RP)” value in the assay with MMP-2 [1] (setting [3]) is reported as 31.0288. The Kobs at MMP-2 [2] (setting [4]) and on MMP-9 (setting [5]) was 12792.1 M⁻¹ s⁻¹ throughout.
Consider RRVLM-MTASG, for which the “relative probability (RP)” value in the assay with MMP-2 [1] (setting [6]) worked out at 2.736. For the same substance, the “Kobs” value at MMP-2 [2] (setting [7]) was 171.876 M⁻¹ s⁻¹; on MMP-9 (setting [8]), 1660.66 M⁻¹ s⁻¹.
For RSHAS-LTASG, in the assay on MMP-2 [1] (setting [6]), the “relative probability (RP)” value stood at 26.2573. Moreover, the “Kobs” value at MMP-2 [2] (setting [7]) was determined as 12792.1 M⁻¹ s⁻¹; on MMP-9 (setting [8]), 0 M⁻¹ s⁻¹.
Take RTAHN-LTASG: the “relative probability (RP)” value in the assay with MMP-2 [1] (setting [3]) is given as 23.7113. The Kobs on MMP-2 [2] (setting [4]) amounted to 12792.1 M⁻¹ s⁻¹; at MMP-9 (setting [5]), 5667.28 M⁻¹ s⁻¹.
For RTASH-LTASG the same measures were 19.8208, 8321.48 M⁻¹ s⁻¹ and 84.609 M⁻¹ s⁻¹.
The like results for RTGLY-LTASG were, in that order, 0.07615, 1283.43 M⁻¹ s⁻¹ and 0 M⁻¹ s⁻¹.
With RTMLH-MTASG, in the assay with MMP-2 [1] (setting [6]), the “relative probability (RP)” value was 4.713. Further, the “Kobs” value at MMP-2 [2] (setting [7]) was 619.843 M⁻¹ s⁻¹; at MMP-9 (setting [8]) it was 261.974 M⁻¹ s⁻¹.
For the substance RTPIG-ITASG, the “relative probability (RP)” value in the assay on MMP-2 [1] (setting [3]) was 31.281. Also, the Kobs at MMP-2 [2] (setting [4]) came to 9740.44 M⁻¹ s⁻¹; on MMP-9 (setting [5]), 12792.1 M⁻¹ s⁻¹.
As to RTPMA-MTASG, the “relative probability (RP)” value with MMP-2 [1] (setting [3]) was 30.2676. The Kobs was 2837.92 M⁻¹ s⁻¹ at MMP-2 [2] (setting [4]) and 3637.04 M⁻¹ s⁻¹ on MMP-9 (setting [5]).
RTPVG-LTASG: the “relative probability (RP)” value in the assay on MMP-2 [1] (setting [6]) is given as 35.2016. For the same substance, the “Kobs” value at MMP-2 [2] (setting [7]) came out at 12792.1 M⁻¹ s⁻¹; at MMP-9 (setting [8]) it was 8321.48 M⁻¹ s⁻¹.
For RVPYG-LTASG, the “relative probability (RP)” value in the assay on MMP-2 [1] (setting [3]) came out at 32.9966. The Kobs on MMP-2 [2] (setting [4]) was found to be 6131.32 M⁻¹ s⁻¹; at MMP-9 (setting [5]), 7015.91 M⁻¹ s⁻¹.
For the substance RVTWA-LTASG, in the assay on MMP-2 [1] (setting [6]), the “relative probability (RP)” value is 0.4366. Besides, the “Kobs” value at MMP-2 [2] (setting [7]) stood at 0 M⁻¹ s⁻¹; at MMP-9 (setting [8]), 1196.62 M⁻¹ s⁻¹.
RYAQP-LTASG: the “relative probability (RP)” value in the assay on MMP-2 [1] (setting [6]) turned out to be 14.4283. The results for the “Kobs” value at MMP-2 [2] (setting [7]) and at MMP-9 (setting [8]) were 4205.91 M⁻¹ s⁻¹ and 2409.72 M⁻¹ s⁻¹, respectively.
For the substance SEPFG-LTASG, in the assay on MMP-2 [1] (setting [3]), the “relative probability (RP)” value is given as 31.7131. Moreover, the Kobs at MMP-2 [2] (setting [4]) and at MMP-9 (setting [5]) was 12792.1 M⁻¹ s⁻¹ each time.
Regarding SEWQG-LTASG, the “relative probability (RP)” value with MMP-2 [1] (setting [3]) is 12.939. For the same substance, the Kobs worked out at 1711.63 M⁻¹ s⁻¹ on MMP-2 [2] (setting [4]) and 690.17 M⁻¹ s⁻¹ at MMP-9 (setting [5]).
For SFPNP-LTASG the same measures were 23.6266, 5667.28 M⁻¹ s⁻¹ and 2545.25 M⁻¹ s⁻¹.
In the case of SGAFN-LYSTA, in the assay on MMP-2 [1] (setting [3]), the “relative probability (RP)” value is listed as 16.2959. For the same substance, the Kobs at MMP-2 [2] (setting [4]) and at MMP-9 (setting [5]) was 12792.1 M⁻¹ s⁻¹ each time.
For SGAHG-ILSTA, the “relative probability (RP)” value in the assay on MMP-2 [1] (setting [3]) came to 8.881. For the same substance, the Kobs at MMP-2 [2] (setting [4]) amounted to 2996.69 M⁻¹ s⁻¹; at MMP-9 (setting [5]) it was 3536.02 M⁻¹ s⁻¹.
For SGAHG-LLLTA, the “relative probability (RP)” value with MMP-2 [1] (setting [3]) turned out to be 23.6336. Further, the values for the Kobs at MMP-2 [2] (setting [4]) and at MMP-9 (setting [5]) were 517.582 M⁻¹ s⁻¹ and 1071.29 M⁻¹ s⁻¹, respectively.
Regarding SGAHG-LLTTA, the “relative probability (RP)” value with MMP-2 [1] (setting [3]) was determined as 23.6336. The values for the Kobs on MMP-2 [2] (setting [4]) and on MMP-9 (setting [5]) were 1112.44 M⁻¹ s⁻¹ and 142.481 M⁻¹ s⁻¹, respectively.
With SGALH-LKATA, in the assay with MMP-2 [1] (setting [6]), the “relative probability (RP)” value is given as 14.6488. The “Kobs” value at MMP-2 [2] (setting [7]) stood at 4205.91 M⁻¹ s⁻¹; at MMP-9 (setting [8]), 6688.74 M⁻¹ s⁻¹.
Consider SGAMG-LFRTA, for which the “relative probability (RP)” value with MMP-2 [1] (setting [3]) was found to be 23.7576. The Kobs on MMP-2 [2] (setting [4]) amounted to 142.481 M⁻¹ s⁻¹; at MMP-9 (setting [5]), 619.843 M⁻¹ s⁻¹.
As to SGAQM-LRGTA, the “relative probability (RP)” value with MMP-2 [1] (setting [6]) was 8.608. Further, the “Kobs” value at MMP-2 [2] (setting [7]) was found to be 4082.43 M⁻¹ s⁻¹; on MMP-9 (setting [8]), 5461.43 M⁻¹ s⁻¹.
Take SGARA-MKWTA: the “relative probability (RP)” value in the assay on MMP-2 [1] (setting [3]) was determined as 25.2992. Besides, the results for the Kobs at MMP-2 [2] (setting [4]) and on MMP-9 (setting [5]) were 1373.05 M⁻¹ s⁻¹ and 2837.92 M⁻¹ s⁻¹, respectively.
For SGARN-LLWTA the same measures were 24.6947, 1660.66 M⁻¹ s⁻¹ and 4613.14 M⁻¹ s⁻¹.
